ChEMBL document CHEMBL4359822, “Design, synthesis of 4,5-diazafluorene derivatives and their anticancer activity via targeting telomeric DNA G-quadruplex” (Eur J Med Chem, 2019)
Activity calls are given as the source filed them.

Experiments:
Assay type in all cases: functional, cell-based
HepG2 = assay: Antiproliferative activity against human HepG2 cells at 10 uM incubated for 36 hrs by CCK8 assay
MCF7 = assay: Antiproliferative activity against human MCF7 cells at 10 uM incubated for 36 hrs by CCK8 assay
A549 = assay: Antiproliferative activity against human A549 cells at 10 uM incubated for 36 hrs by CCK8 assay
AGS = assay: Antiproliferative activity against human AGS cells at 10 uM incubated for 36 hrs by CCK8 assay

Measured: growth inhibition (GI)

O=[N+]([O-])c1ccc(-n2cc(C=C3c4cccnc4-c4ncccc43)c(-c3ccc(F)cc3)n2)c([N+](=O)[O-])c1
active: all assays above

Fc1ccc(-c2n[nH]cc2C=C2c3cccnc3-c3ncccc32)cc1
active: all assays above

Clc1ccc(-c2n[nH]cc2C=C2c3cccnc3-c3ncccc32)cc1
active: all assays above

Brc1ccc(-c2n[nH]cc2C=C2c3cccnc3-c3ncccc32)cc1
active: all assays above

Clc1ccc(-c2nn(Cc3ccccc3)cc2C=C2c3cccnc3-c3ncccc32)cc1
active: all assays above

O=[N+]([O-])c1ccc(-n2cc(C=C3c4cccnc4-c4ncccc43)c(-c3ccc(Cl)cc3)n2)c([N+](=O)[O-])c1
active: all assays above

O=C(O)CN1C(=O)C(=C2c3cccnc3-c3ncccc32)SC1=S
active: all assays above

Cc1ccc(-c2nn(-c3ccc([N+](=O)[O-])cc3[N+](=O)[O-])cc2C=C2c3cccnc3-c3ncccc32)cc1
active: all assays above

O=[N+]([O-])c1ccc(-n2cc(C=C3c4cccnc4-c4ncccc43)c(-c3ccc(Br)cc3)n2)c([N+](=O)[O-])c1
active: all assays above

Cc1ccc(-c2nnc(CN3C(=O)C(=C4c5cccnc5-c5ncccc54)SC3=S)o2)cc1
active: all assays above

Fc1ccc(-c2nn(Cc3ccccc3)cc2C=C2c3cccnc3-c3ncccc32)cc1
active: all assays above

Cc1ccc(-c2n[nH]cc2C=C2c3cccnc3-c3ncccc32)cc1
active: all assays above

Brc1ccc(-c2nn(Cc3ccccc3)cc2C=C2c3cccnc3-c3ncccc32)cc1
active: all assays above

Cc1ccc(-c2nn(Cc3ccccc3)cc2C=C2c3cccnc3-c3ncccc32)cc1
active: all assays above

O=C1C(=C2c3cccnc3-c3ncccc32)SC(=S)N1Cc1nnc(-c2ccc(Cl)cc2)o1
active: all assays above
